Each structure is given as a SMILES string.

In test [1] the test system is cutaneous metastasis of invasive ductal carcinoma (Her2/neu-negative). The test can be described thus: Topical treatment of cutaneous metastasis of invasive ductal carcinoma in a patient (Example 2). Type of test: in vivo, human. The settings on record: person two; 5% cream (ALDARA) topically five times per week for six months. The protocol: (§1) The IRM compound used in the examples is 1-(2-methylpropyl)-1H-imidazo[4,5-c]quinolin-4-amine, formulated as a 5% cream available under the tradename ALDARA (3M Co., St. Paul, Minn.).
person two with invasive ductal carcinoma (UICC stage T2, pN1, B2, cM0) that was estrogen-negative, progesterone-negative, and Her2/neu-negative was treated by mastectomy and adjuvant chemotherapy. Infraclavicular and supraclavicular recurrences were treated with γ- and telecobalt radiation, intrarterial and intravenous chemotherapy. A diffuse cutaneous lesion occurred on the scapula that, upon histological examination, contained an infiltrative ductal growth pattern (FIG. 1I).
(§2) 1-(2-methylpropyl)-1H-imidazo[4,5-c]quinolin-4-amine was administered topically five times per week for six months.

The test system of test [2] is cutaneous metastasis of Her2/neu-positive breast cancer (invasive lobular tumor cells). The experiment in a line: Topical treatment of cutaneous metastasis of breast cancer in a patient (Example 1). The settings on record: person one. In kind it is in vivo, human. The protocol: as §1
person one with breast cancer (UICC stage pT1c, pN1b1, M0, G2, estrogen-positive, progesterone-positive) developed an axillary recurrence and osteolytic metastases (L2-4) despite axillary dissection and neoadjuvant and adjuvant chemotherapy. The recurrent tumor and metastases were treated with radiation. Nine months later, the breast cancer recurred locally (rpT1c, M1, G2, estrogen-negative, progesterone-negative, Her2/neu-positive) and was treated with trastuzumab and percutaneous radiation. An inflammatory erythema occurred on the upper back (FIG. 1A). On histology, invasive lobular tumor cells (keratin-positive, Her2/neu-positive, ICAM-1-positive) were present (FIGS. 1B-1E.
as §2

On to `CC(C)Cn1cnc2c(N)nc3ccccc3c21` [1-(2-methylpropyl)-1H-imidazo[4,5-c]quinolin-4-amine], for which the “skin biopsy of an affected area after the treatment period” value in test [1] is “free of carcinoma cells”. In addition, in test [2] (5% cream (ALDARA) topically five times per week for six months), the “skin lesions upon gross examination or histological examination after the treatment period” value was “no skin lesions were detected”. In addition, in test [2] (after topical treatment five times per week for six months), the “time the patient has remained free of cutaneous metastasis” value was “more than ten months”.

Source of the values: patent US8461174B2, “Treatment for cutaneous metastases” (3M Innovative Properties Company, priority 2004, dated 2013).
